Measurements reported in patent US4654349A, “Anti-allergic methods using pyrazolo(1,5-A)pyridines” (Kyorin Pharmaceutical Co., Ltd., priority 1983, dated 1987).

Legend:
SRS-A release = assay: Inhibitory effect on SRS-A release (chopped lung fragments of sensitized guinea pigs upon antigen challenge, bioassayed on isolated guinea pig ileum); assay type: cell-based; details: Cavia porcellus; concentration of test compound required to produce a 50% inhibition of SRS-A release; preincubated with lung fragments prior to antigen challenge
Procedure: The inhibitory effect of the compounds of this invention on SRS-A release was determined according to the method of Orange and Moors [J. Immunol., 116, 392 (1976)]. SRS-A released from chopped lung fragments of sensitized guinea pigs upon antigen challenge was bioassayed on isolate guinea pig ileum according to the method of Brocklehurst [J. Physiol., 151, 416 (1960)]. Test compounds were preincubated with lung fragments prior to antigen challenge.

5-Lipoxygenase = biological target: T1, 5-Lipoxygenase (Cavia porcellus, UniProt A0A286X958); assay: Effect on metabolism of exogenous arachidonic acid in A23187-stimulated guinea pig peritoneal neutrophils: 5-lipoxygenase product; assay type: cell-based; details: read-out: Inhibition percent, 5-Lipoxygenase
T1 construct: using guinea pig peritoneal neutrophils stimulated with calcium ionophore A23187; endogenous in cells; host or cells: guinea pig peritoneal neutrophils
T1 sequence (A0A286X958 1-674): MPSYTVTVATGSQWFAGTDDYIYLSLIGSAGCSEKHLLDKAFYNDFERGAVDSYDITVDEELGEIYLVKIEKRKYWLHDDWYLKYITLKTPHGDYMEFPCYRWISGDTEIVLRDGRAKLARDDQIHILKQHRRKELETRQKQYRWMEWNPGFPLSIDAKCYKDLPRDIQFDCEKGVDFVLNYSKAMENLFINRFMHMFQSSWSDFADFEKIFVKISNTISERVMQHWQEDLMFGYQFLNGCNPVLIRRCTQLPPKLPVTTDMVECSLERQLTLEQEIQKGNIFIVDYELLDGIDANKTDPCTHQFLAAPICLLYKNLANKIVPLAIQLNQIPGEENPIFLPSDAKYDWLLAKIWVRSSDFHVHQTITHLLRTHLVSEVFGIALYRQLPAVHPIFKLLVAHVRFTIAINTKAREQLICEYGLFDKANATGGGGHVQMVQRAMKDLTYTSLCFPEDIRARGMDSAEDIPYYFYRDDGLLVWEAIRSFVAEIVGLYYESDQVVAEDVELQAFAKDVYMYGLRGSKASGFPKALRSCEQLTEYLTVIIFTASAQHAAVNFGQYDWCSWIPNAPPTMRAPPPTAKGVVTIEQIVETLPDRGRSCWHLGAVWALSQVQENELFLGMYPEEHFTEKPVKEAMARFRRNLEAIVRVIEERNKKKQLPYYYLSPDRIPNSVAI
Procedure: (§1) The effect of the compounds of this invention on the metabolism of exogenous arachidonic acid-1-^14 C was determined essentially according to the method of Harvey and Osborne [J. Pharmacol. Methods 9, 147 (1983)] using guinea pig peritoneal neutrophils stimulated with calcium ionophore A23187. With this procedure, 5-hydroxyeicosatetraenoic acid (a 5-lipoxygenase product) and 12-hydroxy-5,8,10-heptadecatrienoic acid (a cyclooxygenase product) were produced by neutrophils as major metabolites, allowing simultaneous evaluation of the drug effect on both pathways of arachidonic acid metabolism.

Cyclooxygenase = assay: Effect on metabolism of exogenous arachidonic acid in A23187-stimulated guinea pig peritoneal neutrophils: cyclooxygenase product; assay type: cell-based
Procedure: as §1

[1] = must be insufflated as a powder; cited from earlier work

Row | inhibition at 0.1 µM (5-Lipoxygenase) | SMILES | IC50 (SRS-A release) | Inhibition percent, Cyclooxygenase (Cyclooxygenase; 0.1 μM) | also measured
1 |  | CCc1ccc2c(O)cnn2c1 [compound 1, 6-Ethyl-3-hydroxypyrazolo[1,5-a]pyridine] | 0.55 µg/mL |  | 
2 |  | CC(C)c1nn2ccccc2c1O [compound 2] | 1.4 µg/mL |  | 
3 |  | Cc1cccc2c(O)c(C(C)C)nn12 [compound 3] | 0.63 µg/mL |  | 
4 |  | CCc1ccc2c(O)c(C(C)C)nn2c1 [compound 4, 6-Ethyl-3-hydroxy-2-isopropylpyraxolo[1,5-a]pyridine] | 3.5 µg/mL |  | 
5 | 20.3% | CC(C)Cc1nn2ccccc2c1O [compound 5] | 1.8 µg/mL | 0% | inhibition at 1 µM (5-Lipoxygenase): 86.6%; Inhibition percent, Cyclooxygenase (Cyclooxygenase; 1.0 μM): 0%
6 |  | Oc1c(-c2ccc(F)cc2)nn2ccccc12 [compound 6, 2-p-Fluorophenyl-3-hydroxypyrazolo[1,5-a]pyridine] | 2.4 µg/mL |  | 
7 | 62% | CCC(=O)Oc1cnn2cc(CC)ccc12 [compound 7, 6-Ethyl-3-propionyloxypyrazolo[1,5-a]pridine] | 1 µg/mL | 0% | inhibition at 0.3 µM (5-Lipoxygenase): 84%; Inhibition percent, Cyclooxygenase (Cyclooxygenase; 0.3 μM): 0%
8 |  | Cc1nn2ccccc2c1OC(=O)C(C)C [compound 8] | 1.7 µg/mL |  | 
9 | 35.1% | CCc1nn2ccccc2c1OC(C)=O [compound 9] | 1 µg/mL | 0% | inhibition at 0.3 µM (5-Lipoxygenase): 61.7%; Inhibition percent, Cyclooxygenase (Cyclooxygenase; 0.3 μM): 0%
10 | 20.6% | CCCc1nn2ccccc2c1OC(C)=O [compound 10] | 1.7 µg/mL | 0% | inhibition at 0.3 µM (5-Lipoxygenase): 80.2%; Inhibition percent, Cyclooxygenase (Cyclooxygenase; 0.3 μM): 0%
11 |  | CC(=O)Oc1c(C(C)C)nn2ccccc12 [compound 11] | 0.7 µg/mL |  | 
12 | 53.2% | CCC(=O)Oc1c(C(C)C)nn2ccccc12 [compound 12] | 0.52 µg/mL | 0% | 
13 |  | CC(C)C(=O)Oc1c(C(C)C)nn2ccccc12 [compound 13] | 0.88 µg/mL |  | 
14 |  | Cc1cccc2c(OC(=O)C(C)C)c(C(C)C)nn12 [compound 14] | 0.53 µg/mL |  | 
15 |  | CCc1ccc2c(OC(=O)C(C)C)c(C(C)C)nn2c1 [compound 15, 6-Ethyl-3-isobutyryloxy-2-isopropylpyrazolo[1,5-a]pyridine] | 1.2 µg/mL |  | 
16 | 16.9% | CC(C)CC(=O)Oc1c(CC(C)C)nn2ccccc12 [compound 16] | 1.9 µg/mL | 0% | inhibition at 0.3 µM (5-Lipoxygenase): 82.1%; Inhibition percent, Cyclooxygenase (Cyclooxygenase; 0.3 μM): 0%
17 |  | CCOC(=O)Oc1c(C(C)C)nn2cc(CC)ccc12 [compound 17, 3-Ethoxycarbonyloxy-6-ethyl-2-isopropylpyrazolo[1,5-a]pyridine] | 1.5 µg/mL |  | 
18 |  | CC(=O)Oc1c(-c2ccc(F)cc2)nn2ccccc12 [compound 20] | 2.4 µg/mL |  | inhibition at 1 µM (5-Lipoxygenase): 83.7%; Inhibition percent, Cyclooxygenase (Cyclooxygenase; 1.0 μM): 0%
19 |  | O=C(O)c1cc(=O)c2c(OCC(O)COc3cccc4oc(C(=O)O)cc(=O)c34)cccc2o1 [disodium cromoglycate] |  |  | oral activity (in words) [1]: orally inactive
20 |  | O=C1CCN(c2ccccc2)N1 [phenidone, 1phenyl-3-pyrazolidone, reference compound] | 6.3 µg/mL |  | inhibition at 0.3 µM (5-Lipoxygenase): 22%; inhibition at 1 µM (5-Lipoxygenase): 60%; inhibition at 3 µM (5-Lipoxygenase; 3.0 μM): 89%; inhibition at 30 µM (5-Lipoxygenase; 30.0 μM): 95.5%; Inhibition percent, Cyclooxygenase (Cyclooxygenase; 0.3 μM): 0%; Inhibition percent, Cyclooxygenase (Cyclooxygenase; 1.0 μM): 0%; Inhibition percent, Cyclooxygenase (Cyclooxygenase; 3.0 μM): 0%; Inhibition percent, Cyclooxygenase (Cyclooxygenase; 30.0 μM): 58.2%
